The nature of data set [1]: Upregulation of BAX mRNA expression in human HT1080 cells at 1 uM preincubated for 24 hrs followed by red LED irradiation for 20 mins measured after 0.5 to 24 hrs by RT-PCR analysis. Type of data set: functional, cell-based. Conditions: HT-1080.
Data set [2] can be described thus: Induction of singlet oxygen generation in PBS at 5 uM measured within 5 to 10 mins by DPBF-based singlet oxygen trapping method in presence of light. Type of data set: physicochemical. Conditions: buffer.
Data set [3] can be described thus: Induction of necrosis in human HT1080 cells at 1 uM preincubated for 24 hrs measured after 6 hrs by Annexin V Alexa Fluor and PI staining based flow cytometry. Conditions: ht-1080, 6 h. Type of data set: cell-based. On the technique in general: Flow cytometry measures light scatter and fluorescence of single cells or particles in a stream.
Data set [4] is described as follows: Upregulation of NQO1 mRNA expression in human HT1080 cells at 1 uM preincubated for 24 hrs followed by red LED irradiation for 20 mins measured after 0.5 hrs by RT-PCR analysis relative to control. In kind it is functional, cell-based. The note with it: HT-1080.
Data set [5] in a line: Upregulation of GPX1 mRNA expression in human HT1080 cells at 1 uM preincubated for 24 hrs followed by red LED irradiation for 20 mins measured after 3 to 24 hrs by RT-PCR analysis. Conditions: HT-1080. In kind it is functional, cell-based.
A short description of data set [6]: Induction of apoptosis in human HT1080 cells at 1 uM preincubated for 24 hrs measured after 6 hrs by Annexin V Alexa Fluor and PI staining based flow cytometry. In kind it is cell-based. Conditions: ht-1080, 6 h.
Data set [7] can be described thus: Dark cytotoxicity against human HT1080 cells at 2 uM after 24 to 72 hrs by WST-1 assay. Type of data set: cell-based. Conditions: ht-1080, 2 µM. Background: Formazan colour is commonly taken as a measure of viable cells.
Data set [8] can be described thus: Upregulation of SOD2 mRNA expression in human HT1080 cells at 1 uM preincubated for 24 hrs followed by red LED irradiation for 20 mins measured after 0.5 hrs by RT-PCR analysis relative to control. In kind it is functional, cell-based. Conditions: HT-1080.
Data set [9] can be described thus: Drug uptake in mitochondria of human HT1080 cells at 1 uM incubated for 24 hrs by MitoTracker green dye based laser scanning confocal microscopy. Type of data set: ADME. The note with it: ht-1080, 24 h.
A short description of data set [10]: Drug uptake in human HT1080 cells at 1 uM by flow cytometric analysis. Type of data set: ADME, cell-based. Conditions: ht-1080, 1 µM, TDE = time-dependent effect.
For data set [11], the system named is HT-1080. The data set is described as follows: Induction of necrosis in human HT1080 cells at 1 uM preincubated for 24 hrs followed by red LED irradiation for 20 mins measured after 6 hrs by Annexin V Alexa Fluor and PI staining based flow cytometry. In kind it is functional.
Data set [12] in a line: Upregulation of NQO1 mRNA expression in human HT1080 cells at 1 uM preincubated for 24 hrs followed by red LED irradiation for 20 mins measured upto 24 hrs by RT-PCR analysis. Type of data set: functional, cell-based. The note with it: HT-1080.
Data set [13] relates to HT-1080. Description: Photocytotoxicity against human HT1080 cells at 1 uM preincubated for 24 hrs followed by red LED irradiation for 20 mins measured after 24 to 72 hrs by WST-1 assay. Type of data set: functional, cell-based.
Data set [14] is described as follows: Dark cytotoxicity against human HT1080 cells at 2 to 10 uM after 24 to 72 hrs by WST-1 assay. Type of data set: cell-based. The note with it: ht-1080, 10 µM.
The test system of data set [15] is HT-1080. Description: Increase in release of mitochondrial cytochrome c release in cytosolic extracts of human HT1080 cells at 1 uM preincubated for 24 hrs followed by red LED irradiation for 20 mins measured after 0.5 hrs by ELISA method. Type of data set: functional, cell-based. Background: ELISA stands for enzyme-linked immunosorbent assay.
The nature of data set [16]: Downregulation of BCL-2 mRNA expression in human HT1080 cells at 1 uM preincubated for 24 hrs followed by red LED irradiation for 20 mins measured after 0.5 to 24 hrs by RT-PCR analysis. In kind it is functional, cell-based. Conditions: HT-1080.
Data set [17] can be described thus: Upregulation of TP-53 mRNA expression in human HT1080 cells at 1 uM preincubated for 24 hrs followed by red LED irradiation for 20 mins measured after 3 hrs by RT-PCR analysis. Type of data set: functional, cell-based. The note with it: HT-1080.
Data set [18] deals with HT-1080. Description: Increase in release of mitochondrial cytochrome c release in cytosolic extracts of human HT1080 cells at 1 uM preincubated for 24 hrs followed by red LED irradiation for 20 mins measured after 3 hrs by ELISA method. Type of data set: functional, cell-based.
Data set [19] in a line: Dark cytotoxicity against human HT1080 cells at 0.25 to 1 uM after 24 to 72 hrs by WST-1 assay. In kind it is cell-based. The note with it: ht-1080, 1 µM.
Data set [20] in a line: Upregulation of GPX1 mRNA expression in human HT1080 cells at 1 uM preincubated for 24 hrs followed by red LED irradiation for 20 mins measured after 0.5 hrs by RT-PCR analysis relative to control. Conditions: HT-1080. In kind it is functional, cell-based.
Data set [21] concerns HT-1080. Description: Induction of DNA damage in human HT1080 cells at 1 uM preincubated for 24 hrs followed by red LED irradiation for 20 mins measured after 30 mins by ARP probe based flow cytometry. In kind it is functional, cell-based.
In data set [22] the test system is HT-1080. Description: Induction of reactive oxygen species generation in human HT1080 cells at 1 uM preincubated for 24 hrs followed by red LED irradiation for 20 mins measured upto 15 mins by DCFH-DA probe based flow cytometry. In kind it is functional, cell-based.
The test system of data set [23] is HT-1080. The data set is described as follows: Induction of reactive oxygen species generation in human HT1080 cells assessed as increase in integrated median fluorescence intensity at 1 uM preincubated for 24 hrs followed by red LED irradiation for 20 mins measured after 1 min by DCFH-DA probe based flow cytometry relative to control. Type of data set: functional.

Data set [24] can be described thus: Upregulation of APAF1 mRNA expression in human HT1080 cells at 1 uM preincubated for 24 hrs followed by red LED irradiation for 20 mins measured after 0.5 to 24 hrs by RT-PCR analysis. Type of data set: functional, cell-based. Conditions: HT-1080.
Data set [25] can be described thus: Drug uptake in human HT1080 cells at 1 uM upto 6 hrs by flow cytometric analysis. Type of data set: ADME, cell-based. The note with it: ht-1080, 6 h.
Data set [26] relates to HT-1080. The data set is described as follows: Photocytotoxicity against human HT1080 cells at 1 uM preincubated for 24 hrs followed by red LED irradiation for 20 mins measured after 72 hrs by WST-1 assay. In kind it is functional, cell-based.
In data set [27] the test system is HT-1080. The data set is described as follows: Photocytotoxicity against human HT1080 cells at 1 uM preincubated for 24 hrs followed by red LED irradiation for 20 mins measured after 48 to 72 hrs by WST-1 assay. In kind it is functional, cell-based.
Data set [28] is described as follows: Induction of singlet oxygen generation in PBS at 5 uM measured within 60 mins by DPBF-based singlet oxygen trapping method in presence of light. In kind it is physicochemical. Conditions: buffer, 1 h.
Data set [29] in a line: Drug uptake in human HT1080 cells at 1 uM upto 24 hrs by flow cytometric analysis. Type of data set: ADME, cell-based. The note with it: ht-1080, 24 h.

Active and inactive are the calls of the source. No cut-off for these calls is given here.

For `CCCCN1/C(=C/C2=C([O-])C(=C\C3=[N+](CCCC)c4ccc(I)cc4C3(C)C)/C2=O)C(C)(C)c2cc(I)ccc21`, the result (in data set [1]; in [5]; in data set [12]; in [17]; in the data set with HT-1080 [18]; with HT-1080 [22]) was inactive. For the same molecule, the result in [24] was inactive. Besides, the Activity entry in data set [2] was “Active”; in data set [3], “Non-toxic”; in [6] it was “Non-toxic”; in data set [7], “Non-toxic”; with HT-1080 [11] it was 83%; in data set [14], “Dose-dependent effect”. Moreover, the Activity entry in [19] is listed as “Non-toxic”. In addition, the fold change (FC) came to 5.56 in data set [4], 5.21 in data set [8], 54.6 in [20] and 32 with HT-1080 [23]. In addition, the Drug uptake result in [9] is given as “Active”; in [10], “tde”. Also, the result (in the data set on HT-1080 [13]; in the data set with HT-1080 [15]; in [16]; with HT-1080 [21]) was Active.
Take `CC1(C)C(/C=C2/C(=O)C(/C=C3\Nc4ccc(I)cc4C3(C)C)=C2O)=Nc2ccc(I)cc21`: the Drug uptake entry in data set [25] was “Active”. For the same molecule, the Activity result is reported as “Active” in data set [2], “Dose-dependent effect” in data set [14] and “Non-toxic” in data set [19]. Also, the result with HT-1080 [26] was Active.
In the case of `CCCCN1/C(=C/C2=C([O-])C(=C\C3=[N+](CCCC)c4ccc(Br)cc4C3(C)C)/C2=O)C(C)(C)c2cc(Br)ccc21`, the outcome (in data set [1]; in data set [5]; in data set [8]; in [12]; in the data set with HT-1080 [18]; with HT-1080 [22]) was inactive. For the same molecule, the outcome in data set [24] was inactive. The Activity entry in [2] is “Active”; in data set [3], “Non-toxic”; in data set [6], “Non-toxic”; in data set [7], “Non-toxic”; in the data set on HT-1080 [11] it was 81.9%; in data set [14], “Dose-dependent effect”. Moreover, the Activity result in data set [19] is “Non-toxic”. The results for the fold change (FC) (in data set [4]; in [20]; in the data set on HT-1080 [23]) were 3.39, 34.6 and 15.32, respectively. The Drug uptake result in data set [9] was “Active”; in data set [10], “tde”. Besides, the outcome (with HT-1080 [13]; with HT-1080 [15]; in [16]; in data set [17]; in the data set with HT-1080 [21]) was Active.
In the case of `CC1(C)C(/C=C2/C(=O)C(/C=C3\Nc4ccc(Br)cc4C3(C)C)=C2O)=Nc2ccc(Br)cc21`, the Drug uptake result in [25] was “Active”. Further, the Activity entry in data set [2] is “Active”; in data set [14] it was “Dose-dependent effect”; in data set [19], “Non-toxic”. Moreover, the result with HT-1080 [13] was inactive.
As to `CCN1/C(=C/C2=C([O-])C(=C\C3=[N+](CC)c4ccc(Br)cc4C3(C)C)/C2=O)C(C)(C)c2cc(Br)ccc21`, the Activity result is given as “Active” in data set [2], “Non-toxic” in data set [7], “Dose-dependent effect” in data set [14] and “Non-toxic” in data set [19]. In addition, the Drug uptake result in [10] is recorded as “tde”. For the same molecule, the result in the data set with HT-1080 [27] was Active.
In the case of `CC1(C)C(/C=C2/C(=O)C(/C=C3\Nc4ccccc4C3(C)C)=C2O)=Nc2ccccc21`, the Activity entry is on record as “Active” in [28], “Dose-dependent effect” in [14] and “Non-toxic” in data set [19]. Moreover, in data set [29], the Drug uptake entry is “Active”. Also, the result in the data set with HT-1080 [13] was inactive.
With `CCN1/C(=C/C2=C([O-])C(=C\C3=[N+](CC)c4ccc(I)cc4C3(C)C)/C2=O)C(C)(C)c2cc(I)ccc21`, the values for the Activity entry in [2], in [14] and in data set [19] were “Active”, “Dose-dependent effect” and “Non-toxic”, respectively. The Drug uptake entry in data set [10] is reported as “tde”. Also, the result in the data set on HT-1080 [13] was inactive.

The record behind these values is ChEMBL document CHEMBL3779793, “Squaraines bearing halogenated moieties as anticancer photosensitizers: Synthesis, characterization and biological evaluation” (Eur J Med Chem, 2016).
